ChEMBL document CHEMBL1201862, “PubChem BioAssay data set” (2004)
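How tested: cells in 96-well plates exposed to compound for 48 hours at five concentrations. GI50 marks 50% less growth.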 Active and inactive are the calls of the source. Cut-off read from the data, not from the text of the source: active = GI50 up to about 1.1 µM and inactive = higher.

Columns and labels:
Experiment in all cases: inhibition of tumour cell growth, NCI panel, 48 h
BT-549 = system: BT-549
SF-539 = system: SF-539
DU-145 = system: DU-145
SK-MEL-2 = system: SK-MEL-2
HCT-116 = system: HCT-116
SK-OV-3 = system: SK-OV-3
CCRF-CEM = system: CCRF-CEM
RXF 393 = system: RXF 393
SW-620 = system: SW-620
KM12 = system: KM12
HL-60 = system: HL-60
K562 = system: K562
Malme-3M = system: Malme-3M
Hs-578T = system: Hs-578T
OVCAR-8 = system: OVCAR-8
EKVX = system: EKVX
NCI-H23 = system: NCI-H23
HT-29 = system: HT-29
UO-31 = system: UO-31
SF-295 = system: SF-295
ACHN = system: ACHN
HOP-62 = system: HOP-62
SK-MEL-5 = system: SK-MEL-5
MDA-MB-231 = system: MDA-MB-231
A498 = system: A498
MOLT-4 = system: MOLT-4
HCT-15 = system: HCT-15
U-251 = system: U-251
SK-MEL-28 = system: SK-MEL-28
UACC-62 = system: UACC-62
OVCAR-5 = system: OVCAR-5
OVCAR-3 = system: OVCAR-3
M14 = system: M14
MDA-MB-435 = system: MDA-MB-435
SF-268 = system: SF-268
NCI-H226 = system: NCI-H226
PC-3 = system: PC-3
786-0 = system: 786-0
MCF7 = system: MCF7
MDA-N = system: MDA-N
HOP-92 = system: HOP-92
IGROV-1 = system: IGROV-1
A549 = system: A549
SR = system: SR
NCI/ADR-RES = system: NCI/ADR-RES
T47D = system: T47D
SN12C = system: SN12C
TK-10 = system: TK-10
NCI-H460 = system: NCI-H460
HCC 2998 = system: HCC 2998
SNB-19 = system: SNB-19
OVCAR-4 = system: OVCAR-4
UACC-257 = system: UACC-257
LOX IMVI = system: LOX IMVI
COLO 205 = system: COLO 205
RPMI-8226 = system: RPMI-8226
SNB-75 = system: SNB-75
NCI-H522 = system: NCI-H522
CAKI-1 = system: CAKI-1

Measured: GI50

Cc1ccc(SC2C(=O)C3CC(OCc4ccccc4)C2(C)C3(C)C)cc1 (stereo not drawn)
29.1 µM: HCT-15
inactive: BT-549 > 100 µM | SF-539 > 100 µM | DU-145 > 100 µM | SK-MEL-2 38.7 µM | HCT-116 9.66 µM | SK-OV-3 > 100 µM | CCRF-CEM 73.8 µM | RXF 393 52 µM | SW-620 > 100 µM | KM12 > 100 µM | HL-60 37.9 µM | K562 32.9 µM | Malme-3M > 100 µM | Hs-578T > 100 µM | OVCAR-8 > 100 µM | EKVX 64.7 µM | NCI-H23 46.8 µM | HT-29 41.9 µM | UO-31 > 100 µM | SF-295 > 100 µM | ACHN > 100 µM | HOP-62 > 100 µM | SK-MEL-5 > 100 µM | MDA-MB-231 > 100 µM | A498 > 100 µM | MOLT-4 13 µM | U-251 39.3 µM | SK-MEL-28 > 100 µM | UACC-62 > 100 µM | OVCAR-5 > 100 µM | OVCAR-3 > 100 µM | M14 > 100 µM | MDA-MB-435 > 100 µM | SF-268 > 100 µM | NCI-H226 > 100 µM | PC-3 12.4 µM | 786-0 > 100 µM | MCF7 > 100 µM | MDA-N > 100 µM | HOP-92 29.6 µM | IGROV-1 > 100 µM | A549 > 100 µM | SR 51.3 µM | NCI/ADR-RES > 100 µM | T47D 13.1 µM | SN12C > 100 µM | TK-10 > 100 µM | NCI-H460 > 100 µM | HCC 2998 > 100 µM | SNB-19 > 100 µM

O=P(O)(O)OP(=O)(O)O
> 100 µM: HCT-15
inactive: BT-549 > 100 µM | SF-539 > 100 µM | OVCAR-4 > 100 µM | DU-145 > 100 µM | SK-MEL-2 > 100 µM | HCT-116 > 100 µM | UACC-257 > 100 µM | SK-OV-3 > 100 µM | LOX IMVI > 100 µM | COLO 205 > 100 µM | CCRF-CEM > 100 µM | RXF 393 > 100 µM | SW-620 > 100 µM | KM12 > 100 µM | RPMI-8226 > 100 µM | HL-60 > 100 µM | SNB-75 > 100 µM | K562 > 100 µM | Malme-3M > 100 µM | Hs-578T > 100 µM | OVCAR-8 > 100 µM | EKVX > 100 µM | NCI-H23 > 100 µM | HT-29 > 100 µM | UO-31 > 100 µM | ACHN > 100 µM | HOP-62 > 100 µM | SK-MEL-5 > 100 µM | NCI-H522 > 100 µM | MDA-MB-231 > 100 µM | CAKI-1 > 100 µM | A498 > 100 µM | MOLT-4 > 100 µM | U-251 > 100 µM | SK-MEL-28 > 100 µM | UACC-62 > 100 µM | OVCAR-5 > 100 µM | OVCAR-3 > 100 µM | M14 > 100 µM | MDA-MB-435 > 100 µM | SF-268 > 100 µM | PC-3 > 100 µM | 786-0 > 100 µM | MCF7 > 100 µM | MDA-N > 100 µM | HOP-92 > 100 µM | IGROV-1 > 100 µM | A549 > 100 µM | SR > 100 µM | NCI/ADR-RES > 100 µM | T47D > 100 µM | SN12C > 100 µM | TK-10 > 100 µM | NCI-H460 > 100 µM | HCC 2998 > 100 µM | SNB-19 > 100 µM
